Consider two compounds from patent US20190216725A1, “DRUG DELIVERY SYSTEM FOR THE DELIVERY OF INTEGRASE INHIBITORS” (MERCK SHARP & DOHME CORP., priority 2016, published 2019).

A short description of the data set: maximum solubility in PBS + solutol. In kind it is physicochemical. Particulars: aqueous with cosolvent or surfactant or cyclodextrin.

One may read the solubility as how much of the substance goes into solution per volume.

In the case of `CCN1C[C@@H]2C[C@@H](OC)c3c(C(=O)NCc4ccc(F)cc4F)c(=O)c(O)c(n32)C1=O` [active ingredient 2, (3aS,5R)-N-(2,4-difluorobenzyl)-2-ethyl-8-hydroxy-5-methoxy-1,7-dioxo-2,3,3a,4,5,7-hexahydro-1H-pyrazino[2,1,6-cd]indolizine-6-carboxamide], the solubility (in PBS+2 wt % solutol) came to 310 µg/mL.

Consider `C[C@]12CCCO[C@H]1Cn1cc(C(=O)NCc3ccc(F)cc3F)c(=O)c(O)c1C2=O` [active ingredient 1, (4aS,11aR)-N-(2,4-difluorobenzyl)-6-hydroxy-4a-methyl-5,7-dioxo-2,3,4,4a,5,7,11,11a-octahydropyrano[3,2-b]quinolizine-8-carboxamide], for which the solubility runs as follows: (in PBS+2 wt % solutol) 150 µg/mL; (in PBS+5 wt % solutol) 260 µg/mL.
